Patent US20160263072A1, “MONOACYLGLYCEROLS AND FAT-SOLUBLE NUTRIENTS FOR USE IN THE TREATMENT OF MALABSORPTION HAVING A NON-MECHANICAL BASIS” (NESTEC S.A., priority 2013, published 2016)

What was measured:
[1] = Lipid maldigestion or malabsorption rat model (XENICAL-induced): EPA level in red blood cell and tissue lipids; type: in vivo; settings: rats
Description: The concept was tested in a lipid maldigestion or malabsorption rat model. The maldigestion or malabsorption condition was obtained using XENICAL® (ORLISTAT), a pancreatic and gastric lipases inhibitor (tetrahydrolipstatin; see FIG. 7). Rats were fed during 21 days with long-chain polyunsaturated fatty acid (LC-PUFA) supplements containing mainly eicosapentaenoic (EPA) acid. Fish oil was used as a source of triacylglycerols, and different EPA glycerides were evaluated. XENICAL® (ORLISTAT) was given at a level sufficient to decrease lipid absorption by 40%. A group receiving fish oil without XENICAL® (ORLISTAT) was used as a positive control. At different time intervals (D3, D7, […]), the fatty acid profiles of red blood cell and plasma lipids were determined. At the end of the experiment, the fatty acid profiles of different tissues were determined. The main objective was to follow the level of EPA in red blood cell and plasma lipids. The main comparison evaluated was the difference in EPA level between the group receiving EPA-containing sn-1(3) MAG in combination with XENICAL® (ORLISTAT) and the positive control group (fish oil+XENICAL® (ORLISTAT)).

[2] = Clinical study: delivery of EPA by sn-1(3) MAG vs fish oil (TAG) under XENICAL (ORLISTAT)-induced lipid maldigestion; type: in vivo, humans
Description: This clinical study compared the efficacy of sn-1(3) MAG and fish oil (TAG) in delivering EPA in humans under lipid maldigestion conditions induced by XENICAL® (ORLISTAT). The comparison was tested in volunteers having a BMI of 37-40 kg/m^2 and treated with ORLISTAT® to induce lipid maldigestion or not treated with XENICAL® (ORLISTAT). The primary objective was to assess accretion of EPA in erythrocytes over 21 days when consumed as fish oil (TAG) or sn-1(3) MAG. The secondary objectives were to assess accretion of EPA in plasma over 21 days and also to assess the pharmacokinetics of EPA after an acute dose either in the form of sn-1(3) MAG or TAG (AUC in chylomicrons over 10 hours postprandial).

CCCCCCCCCCC[C@@H](C[C@@H]1OC(=O)[C@H]1CCCCCC)OC(=O)[C@H](CC(C)C)NC=O [XENICAL® (ORLISTAT), tetrahydrolipstatin, reference compound]
EPA incorporation in red blood cells ([1]; day 7, fish oil + XENICAL vs fish oil without XENICAL): decreases EPA incorporation in red blood cells

CC/C=C\C/C=C\C/C=C\C/C=C\C/C=C\CCCC(=O)OC[C@@H](O)CO [sn-1(3) MAG, 1,3 MAG-EPA]
incorporation of LC-PUFAs in tissue ([1]; conditions of lipid maldigestion or malabsorption): improved | chronic effect: accretion of EPA in erythrocytes after 21 days ([2]; humans, with XENICAL, vs fish oil and XENICAL, p=0.0001): statistically significant | chronic effect: accretion of EPA in plasma after 21 days ([2]; humans, with XENICAL, vs fish oil and XENICAL, p=0.0003): statistically significant | carrier for EPA compared with fish oil (TAG) ([2]; obese subjects treated with XENICAL): better carrier for EPA than fish oil
